# “Also recorded” adds a separate entry of the source.
# Experiments:
# [1] = biological target: FABP5 (Homo sapiens (Human), UniProt Q01469); experiment: Fluorescence (ANS) competition binding assay, FABP5; details: ANS displacement
# Protocol: (§1) This example illustrates a two-step fluorescence binding assay study used to determine the binding affinity of the various inhibitor compounds disclosed herein with the various FABPs: FABP3, FABP4, FABP5 and FABP7. Further secondary screening studies were carried out for compounds with high binding affinities toward the FABPs and based on their ability to activate the nuclear receptors PPARα, PPARγ, or PPARδ.
# (§2) Binding assays for FABP3, FABP4, FABP5 and FABP7 were carried out by fluorescence titrations. His-tagged FABPs were bacterially expressed in E. coli, purified using Ni Sepharose beads, and the equilibrium dissociation constants (Kd) that characterize their interactions with different inhibitor compounds were measured by fluorescence competition assays. The method entails two steps as described in e.g., Lin, Q. et al., “Ligand selectivity of the peroxisome proliferator-activated receptor alpha,” Biochemistry 38, 185-190, doi:10.1021/bi9816094 [pii](1999). In the first step, Kd for the association of the protein with the fluorescent fatty acid probe ANS was measured. Protein (2 μM) was titrated with ANS from a concentrated solution in DMSO. Ligand binding was monitored by following the increase in the fluorescence of the ligand upon binding to the protein, and Kd for the association of ANS with the each FABP was computed from titration curves as described in e.g., Norris, A. W. & Li, E., “Fluorometric titration of the CRABPs,” Methods Mol Biol 89, 123-139 (1998)). In the second step, Kds for binding of non-fluorescent ligands were measured by monitoring their ability to displace ANS in the binding pocket of the protein. Each FABP was precomplexed with ANS at 1:1 molar ratio and titrated with the different compounds whose binding was reflected by a decrease in probe fluorescence. Kds were extracted from the EC50 of the competition curve and the measured Kd for ANS.
# [2] = system: OVCAR5 cells; experiment: Proliferation assay (Incucyte confluency), OVCAR5; format: cell-based, human; details: 4 days
# Protocol: (§3) COS-7, MDA-MB-231, and HepG2, were cultured in Dulbecco's modified Eagle's medium (DMEM) supplemented with 10% fetal bovine serum (Invitrogen Life Sciences, Carlsbad, CA). BT-549, OVCAR5 and OVCAR8 cells were cultured in L-Glutamine containing RPMI medium supplemented with 10% fetal calf serum (Invitrogen Life Sciences, Carlsbad, CA). The primary Human Mammary Epithelial Cells (HMEC) were cultured in mammary epithelial cell complete medium (basal medium plus rH-Insulin (5 μg/mL); L-Glutamine (6 mM); Epinephrine (1 μM); Apo-Transferrin (5 μg/mL); rH-TGF-α (0.5 ng/mL); ExtractP (0.4%); Hydrocortisone Hemisuccinate (100 ng/mL)).
# (§4) 2000 cells were plated in each well of 96-well plate. The next day cells were treated with compounds and incubated in Incucyte for 4 days. Images taken every 4 hours for the duration of the time were analyzed to calculate percentage of confluency in response to the treatments. Growth inhibition was calculated as 1—(percentage of viable cells out of untreated cells).
# [3] = biological target: FABP7 (Homo sapiens (Human), UniProt O15540); experiment: Fluorescence (ANS) competition binding assay, FABP7; details: ANS displacement
# Sequence of FABP7 (O15540 whole entry, species assumed): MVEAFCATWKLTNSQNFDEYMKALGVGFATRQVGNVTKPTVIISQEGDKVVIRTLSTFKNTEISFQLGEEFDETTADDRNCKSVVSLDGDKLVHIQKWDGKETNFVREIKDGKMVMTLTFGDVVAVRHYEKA
# Protocol: as §1, §2
# [4] = biological target: FABP3 (Homo sapiens (Human), UniProt P05413); experiment: Fluorescence (ANS) competition binding assay, FABP3; details: ANS displacement
# Sequence of FABP3 (P05413 whole entry, species assumed): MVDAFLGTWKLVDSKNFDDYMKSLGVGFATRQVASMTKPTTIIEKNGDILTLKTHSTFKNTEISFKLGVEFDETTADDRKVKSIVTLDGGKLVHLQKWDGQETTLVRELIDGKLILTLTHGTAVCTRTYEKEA
# Protocol: as §1, §2
# [5] = Single dose IV and PO PK study in C57BL/6 mice; format: in vivo; details: male C57BL/6 mice
# Protocol: C57BL/6 male mice or Han Wistar rats were used, n=3 for each administration route and compound. Single dose of each compound was administered orally (PO, 10 mg/Kg) or by intravenous administration (IV, 1 mg/Kg). Following intravenous and oral administration, blood samples (ca 0.2 mL) were collected and compound amount was measured by HLPC. For IV group, blood samples were collected at 0.083, 0.25, 0.5, 1, 2, 4, 6, 8, and 24 hours post-dose. For PO group, blood samples were collected at 0.25, 0.5, 1, 2, 4, 6, 8, and 24 hours post-dose.
# [6] = system: MB-231 cells; experiment: Proliferation assay (Incucyte confluency), MB-231; format: cell-based; details: Homo sapiens, 96 h, 4 days, read-out: IC50, inhibition of proliferation
# Protocol: as §3, §4
# [7] = biological target: FABP4 (Homo sapiens (Human), UniProt P15090); experiment: Fluorescence (ANS) competition binding assay, FABP4; details: ANS displacement
# Sequence of FABP4 (P15090 whole entry, species assumed): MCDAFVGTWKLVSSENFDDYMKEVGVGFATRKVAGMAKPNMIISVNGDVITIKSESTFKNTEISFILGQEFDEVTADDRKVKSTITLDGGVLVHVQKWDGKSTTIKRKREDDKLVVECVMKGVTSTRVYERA
# Protocol: as §1, §2
# [8] = biological target: PPARγ (Homo sapiens (Human), UniProt P37231); experiment: Transcriptional activation assay in COS7 cells, PPARγ; format: cell-based; details: PPRE luciferase reporter, PD151 and PD152 at 10 μM
# Sequence of PPARγ (P37231 whole entry, species assumed): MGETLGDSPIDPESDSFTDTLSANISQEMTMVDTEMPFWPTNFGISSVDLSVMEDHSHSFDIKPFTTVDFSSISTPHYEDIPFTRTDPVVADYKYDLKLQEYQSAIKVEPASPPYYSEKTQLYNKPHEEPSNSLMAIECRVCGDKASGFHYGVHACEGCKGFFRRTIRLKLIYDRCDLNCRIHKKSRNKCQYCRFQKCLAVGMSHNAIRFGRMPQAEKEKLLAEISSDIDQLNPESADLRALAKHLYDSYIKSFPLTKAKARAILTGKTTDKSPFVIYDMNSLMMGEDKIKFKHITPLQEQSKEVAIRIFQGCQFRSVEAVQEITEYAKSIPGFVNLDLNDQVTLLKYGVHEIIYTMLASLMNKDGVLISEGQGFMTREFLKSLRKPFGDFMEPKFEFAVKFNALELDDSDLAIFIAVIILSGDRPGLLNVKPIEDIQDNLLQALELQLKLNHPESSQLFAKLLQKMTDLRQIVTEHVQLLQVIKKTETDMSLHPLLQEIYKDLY
# Protocol: (§5) COS-7 were cultured in 6-well plates and co-transfected with either a luciferase reporter driven by 3 copies of a PPRE and expression vector for either PPARδ, PPARα or PPARγ together with a vector harboring cDNA for β-galactosidase, serving as a transfection control. To test whether FABP4 or FABP5 mediate activation of their cognate receptors PPARγ and PPARδ, respectively, cells were also co-transfected with a plasmid harboring sequence of either FABP4 or FABP5. 18 h post-transfection, cells were placed in a serum-free medium and treated with agonist/compound. 18 h. later, cells were lysed, luciferase activity was assayed (Promega, WI, USA) and corrected for transfection efficiency by the activity of β-galactosidase.
# (§6) Transcriptional activation assays were carried out utilizing COS7 cells as described above.
# [9] = biological target: PPARδ (Homo sapiens (Human), UniProt Q03181); experiment: Transcriptional activation assay in COS7 cells, PPARδ; format: cell-based; details: PPRE luciferase reporter, PD151 and PD152 at 10 μM
# Sequence of PPARδ (Q03181 whole entry, species assumed): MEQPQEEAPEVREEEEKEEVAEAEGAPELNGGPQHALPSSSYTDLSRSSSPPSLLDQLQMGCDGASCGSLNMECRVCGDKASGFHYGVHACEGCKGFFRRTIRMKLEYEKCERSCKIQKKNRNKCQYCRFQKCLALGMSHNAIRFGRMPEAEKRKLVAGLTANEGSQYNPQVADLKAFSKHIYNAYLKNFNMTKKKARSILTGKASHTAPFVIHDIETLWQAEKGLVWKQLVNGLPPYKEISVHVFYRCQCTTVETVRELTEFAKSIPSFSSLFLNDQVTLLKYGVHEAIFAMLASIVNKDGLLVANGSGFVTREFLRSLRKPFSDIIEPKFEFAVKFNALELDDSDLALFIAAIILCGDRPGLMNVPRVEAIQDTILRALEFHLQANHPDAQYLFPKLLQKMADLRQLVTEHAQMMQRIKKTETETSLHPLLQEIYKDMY
# Protocol: as §5, §6
# [10] = system: BT-549 cells; experiment: Proliferation assay (Incucyte confluency), BT-549; format: cell-based; details: Homo sapiens, 96 h, 4 days, read-out: IC50, inhibition of proliferation
# Protocol: as §3, §4
# [11] = biological target: PPARα (Homo sapiens (Human), UniProt Q07869); experiment: Transcriptional activation assay in COS7 cells, PPARα; format: cell-based; details: PPRE luciferase reporter, PD151 and PD152 at 10 μM
# Sequence of PPARα (Q07869 whole entry, species assumed): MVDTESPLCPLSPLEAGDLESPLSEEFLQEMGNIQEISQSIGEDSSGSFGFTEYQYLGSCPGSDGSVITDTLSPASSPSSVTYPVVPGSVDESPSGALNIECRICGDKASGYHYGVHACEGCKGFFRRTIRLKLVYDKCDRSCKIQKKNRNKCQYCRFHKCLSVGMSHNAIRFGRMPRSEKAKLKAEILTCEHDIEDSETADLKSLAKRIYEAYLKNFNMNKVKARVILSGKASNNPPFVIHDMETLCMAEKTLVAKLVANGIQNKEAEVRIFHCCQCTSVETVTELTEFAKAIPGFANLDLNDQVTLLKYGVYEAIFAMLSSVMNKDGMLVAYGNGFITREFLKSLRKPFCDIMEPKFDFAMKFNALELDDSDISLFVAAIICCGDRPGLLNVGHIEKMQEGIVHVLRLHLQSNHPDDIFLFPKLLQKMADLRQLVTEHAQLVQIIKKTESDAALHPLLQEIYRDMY
# Protocol: as §5, §6
# [12] = system: OVCAR8 cells; experiment: Proliferation assay (Incucyte confluency), OVCAR8; format: cell-based; details: Homo sapiens, OVCAR-8, 96 h, 4 days, read-out: IC50, inhibition of OVCAR8 proliferation
# Protocol: as §3, §4
# [13] = mouse, plasma, intravenous 1 mg/kg
# Sequence of FABP5 (Q01469 whole entry, species assumed): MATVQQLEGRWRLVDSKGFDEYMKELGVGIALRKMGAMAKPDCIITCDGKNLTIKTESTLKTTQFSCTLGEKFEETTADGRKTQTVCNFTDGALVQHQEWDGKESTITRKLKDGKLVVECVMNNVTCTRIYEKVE
structure (smiles),measurement,setting,value
"CC(C)Oc1nc(NC(=O)CSCC(=O)O)c(Cl)cc1C(F)(F)F [PD151, 2-((2-((3-chloro-6-isopropoxy-5-(trifluoromethyl)pyridin-2-yl)amino)-2-oxoethyl)thio)acetic acid]",Kd,[1],0.016 µM
same,Inhibition of OVCAR5 proliferation,[2],inhibited proliferation of the two cell lines in a dose-dependent manner
same,Kd,[3],> 1 µM
same,Kd,[4],0.25 µM
same,Thalf,[5]; oral 10 mg/kg,4 h
same,clearance,[5]; [13],5.3 mL/min/kg
same,half-life,[5]; [13],3 to 4 h
same,bioavailability,"[5]; mouse, plasma, single oral dose 10 mg/kg",95%
same,IC50,[6],0.727 µM
same,Kd,[7],0.018 µM
same,Activation of transcription by PPARγ,[8],None of these tested compounds activated; also recorded: none of the tested compounds PD151 and PD152 activated transcription
same,Activation of transcription by PPARδ,[9],None of these tested compounds activated; also recorded: none of the tested compounds PD151 and PD152 activated transcription
same,IC50,[10],1.01 µM
same,Activation of transcription by PPARα,[11],None of these tested compounds activated; also recorded: none of the tested compounds PD151 and PD152 activated transcription
same,IC50,[12],0.7 µM
